#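 Method: 48-hour compound exposure of cells in 96-well plates, five concentrations, linear interpolation of endpoints. TGI denotes the concentration required for complete inhibition of growth.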
# Assays:
# Test in all cases: growth of human tumour cells (NCI), 48 h
# U251 CNS = test system: U251 CNS
# MOLT-4 leukemia = test system: MOLT-4 leukemia
# SF-268 CNS = test system: SF-268 CNS
# HOP-62 NSCLC = test system: HOP-62 NSCLC
# SF-295 CNS = test system: SF-295 CNS
# UACC-257 melanoma = test system: UACC-257 melanoma
# BT-549 breast = test system: BT-549 breast
# OVCAR-3 ovarian = test system: OVCAR-3 ovarian
# KM12 colon = test system: KM12 colon
# UO-31 renal = test system: UO-31 renal
# CCRF-CEM leukemia = test system: CCRF-CEM leukemia
# RPMI-8226 leukemia = test system: RPMI-8226 leukemia
# SK-MEL-5 melanoma = test system: SK-MEL-5 melanoma
# MDA-N = test system: MDA-N
# RXF 393 renal = test system: RXF 393 renal
# CAKI-1 renal = test system: CAKI-1 renal
# A549 NSCLC = test system: A549 NSCLC
# SN12C renal = test system: SN12C renal
# EKVX NSCLC = test system: EKVX NSCLC
# IGROV1 ovarian = test system: IGROV1 ovarian
# NCI-H460 lung = test system: NCI-H460 lung
# UACC-62 melanoma = test system: UACC-62 melanoma
# HL-60(TB) leukemia = test system: HL-60(TB) leukemia
# SW-620 colon = test system: SW-620 colon
# ACHN renal = test system: ACHN renal
# MALME-3M melanoma = test system: MALME-3M melanoma
# NCI-H23 lung = test system: NCI-H23 lung
# OVCAR-8 ovarian = test system: OVCAR-8 ovarian
# K-562 leukemia = test system: K-562 leukemia
# SK-MEL-2 melanoma = test system: SK-MEL-2 melanoma
# 786-0 renal = test system: 786-0 renal
# SK-MEL-28 melanoma = test system: SK-MEL-28 melanoma
# SK-OV-3 ovarian = test system: SK-OV-3 ovarian
# MDA-MB-435 = test system: MDA-MB-435
# MDA-MB-231 breast = test system: MDA-MB-231 breast
# HCT-15 colon = test system: HCT-15 colon
# OVCAR-4 ovarian = test system: OVCAR-4 ovarian
# HCT-116 colon = test system: HCT-116 colon
# PC-3 prostate = test system: PC-3 prostate
# A498 renal = test system: A498 renal
# NCI-H522 lung = test system: NCI-H522 lung
# HS 578T breast = test system: HS 578T breast
# NCI-H226 lung = test system: NCI-H226 lung
# DU-145 prostate = test system: DU-145 prostate
# SNB-75 CNS = test system: SNB-75 CNS
# NCI/ADR-RES ovarian = test system: NCI/ADR-RES ovarian
# COLO 205 colon = test system: COLO 205 colon
# HT29 colon = test system: HT29 colon
# SNB-19 CNS = test system: SNB-19 CNS
# OVCAR-5 ovarian = test system: OVCAR-5 ovarian
# TK-10 renal = test system: TK-10 renal
# M14 melanoma = test system: M14 melanoma
# HCC-2998 colon = test system: HCC-2998 colon
# MCF7 breast = test system: MCF7 breast
# SR leukemia = test system: SR leukemia
# HOP-92 NSCLC = test system: HOP-92 NSCLC
# LOX IMVI melanoma = test system: LOX IMVI melanoma
# SF-539 CNS = test system: SF-539 CNS
# T-47D breast = test system: T-47D breast
structure (smiles),measurement,setting,value
CC1CC(N)=Nc2ccccc2N1Cc1ccccc1 (centres undefined),TGI,U251 CNS,28.4 µM
same,TGI,MOLT-4 leukemia,18.4 µM
same,TGI,SF-268 CNS,26.4 µM
same,TGI,HOP-62 NSCLC,27.2 µM
same,TGI,SF-295 CNS,27.8 µM
same,TGI,UACC-257 melanoma,25.5 µM
same,TGI,BT-549 breast,26 µM
same,TGI,OVCAR-3 ovarian,24.9 µM
same,TGI,KM12 colon,28.2 µM
same,TGI,UO-31 renal,42.3 µM
same,TGI,CCRF-CEM leukemia,33.7 µM
same,TGI,RPMI-8226 leukemia,17.2 µM
same,TGI,SK-MEL-5 melanoma,27.8 µM
same,TGI,MDA-N,39.6 µM
same,TGI,RXF 393 renal,24.4 µM
same,TGI,CAKI-1 renal,25.2 µM
same,TGI,A549 NSCLC,32.7 µM
same,TGI,SN12C renal,30.2 µM
same,TGI,EKVX NSCLC,63.9 µM
same,TGI,IGROV1 ovarian,19.9 µM
same,TGI,NCI-H460 lung,26.8 µM
same,TGI,UACC-62 melanoma,27.2 µM
same,TGI,HL-60(TB) leukemia,19.5 µM
same,TGI,SW-620 colon,25.2 µM
same,TGI,ACHN renal,28.5 µM
same,TGI,MALME-3M melanoma,15.4 µM
same,TGI,NCI-H23 lung,31.1 µM
same,TGI,OVCAR-8 ovarian,27.8 µM
same,TGI,K-562 leukemia,15.7 µM
same,TGI,SK-MEL-2 melanoma,27.4 µM
same,TGI,786-0 renal,> 100 µM
same,TGI,SK-MEL-28 melanoma,23.8 µM
same,TGI,SK-OV-3 ovarian,25.9 µM
same,TGI,MDA-MB-435,26.8 µM
same,TGI,MDA-MB-231 breast,27.4 µM
same,TGI,HCT-15 colon,29.9 µM
same,TGI,OVCAR-4 ovarian,34.5 µM
same,TGI,HCT-116 colon,> 100 µM
same,TGI,PC-3 prostate,28.2 µM
same,TGI,A498 renal,23.3 µM
same,TGI,NCI-H522 lung,25.3 µM
same,TGI,HS 578T breast,23.8 µM
same,TGI,NCI-H226 lung,30.9 µM
same,TGI,DU-145 prostate,32.7 µM
same,TGI,SNB-75 CNS,20.8 µM
same,TGI,NCI/ADR-RES ovarian,28.4 µM
same,TGI,COLO 205 colon,28.1 µM
same,TGI,HT29 colon,27.4 µM
same,TGI,SNB-19 CNS,30.9 µM
same,TGI,OVCAR-5 ovarian,> 100 µM
same,TGI,TK-10 renal,28.2 µM
same,TGI,M14 melanoma,29.3 µM
CC(=O)OCc1nc(C#N)c(N)o1,TGI,U251 CNS,> 100 µM
same,TGI,HCC-2998 colon,> 100 µM
same,TGI,MOLT-4 leukemia,> 100 µM
same,TGI,SF-268 CNS,> 100 µM
same,TGI,HOP-62 NSCLC,> 100 µM
same,TGI,SF-295 CNS,> 100 µM
same,TGI,UACC-257 melanoma,> 100 µM
same,TGI,BT-549 breast,> 100 µM
same,TGI,OVCAR-3 ovarian,> 100 µM
same,TGI,KM12 colon,> 100 µM
same,TGI,UO-31 renal,> 100 µM
same,TGI,CCRF-CEM leukemia,> 100 µM
same,TGI,RPMI-8226 leukemia,> 100 µM
same,TGI,SK-MEL-5 melanoma,> 100 µM
same,TGI,MDA-N,> 100 µM
same,TGI,RXF 393 renal,> 100 µM
same,TGI,CAKI-1 renal,> 100 µM
same,TGI,SN12C renal,> 100 µM
same,TGI,EKVX NSCLC,> 100 µM
same,TGI,IGROV1 ovarian,> 100 µM
same,TGI,NCI-H460 lung,> 100 µM
same,TGI,UACC-62 melanoma,> 100 µM
same,TGI,HL-60(TB) leukemia,> 100 µM
same,TGI,SW-620 colon,> 100 µM
same,TGI,ACHN renal,> 100 µM
same,TGI,MALME-3M melanoma,> 100 µM
same,TGI,NCI-H23 lung,> 100 µM
same,TGI,K-562 leukemia,> 100 µM
same,TGI,MCF7 breast,> 100 µM
same,TGI,SK-MEL-2 melanoma,> 100 µM
same,TGI,786-0 renal,> 100 µM
same,TGI,SK-MEL-28 melanoma,> 100 µM
same,TGI,SK-OV-3 ovarian,> 100 µM
same,TGI,MDA-MB-435,> 100 µM
same,TGI,MDA-MB-231 breast,> 100 µM
same,TGI,SR leukemia,> 100 µM
same,TGI,HCT-15 colon,> 100 µM
same,TGI,OVCAR-4 ovarian,> 100 µM
same,TGI,HCT-116 colon,> 100 µM
same,TGI,PC-3 prostate,> 100 µM
same,TGI,A498 renal,> 100 µM
same,TGI,NCI-H522 lung,> 100 µM
same,TGI,HS 578T breast,> 100 µM
same,TGI,NCI-H226 lung,> 100 µM
same,TGI,DU-145 prostate,> 100 µM
same,TGI,HOP-92 NSCLC,> 100 µM
same,TGI,COLO 205 colon,> 100 µM
same,TGI,HT29 colon,> 100 µM
same,TGI,SNB-19 CNS,> 100 µM
same,TGI,OVCAR-5 ovarian,> 100 µM
same,TGI,TK-10 renal,> 100 µM
same,TGI,LOX IMVI melanoma,> 100 µM
COC(=O)[C@@H]1O[C@]12C(CO[Si](C)(C)C(C)(C)C)OC(n1ccc(=O)[nH]c1=O)C2O[Si](C)(C)C(C)(C)C (some centres undefined),TGI,U251 CNS,> 100 µM
same,TGI,HCC-2998 colon,> 100 µM
same,TGI,MOLT-4 leukemia,76.5 µM
same,TGI,SF-268 CNS,> 100 µM
same,TGI,HOP-62 NSCLC,48 µM
same,TGI,SF-295 CNS,57.7 µM
same,TGI,SF-539 CNS,38 µM
same,TGI,UACC-257 melanoma,57.5 µM
same,TGI,BT-549 breast,47.7 µM
same,TGI,OVCAR-3 ovarian,30.8 µM
same,TGI,KM12 colon,77.9 µM
same,TGI,UO-31 renal,45.5 µM
same,TGI,CCRF-CEM leukemia,> 100 µM
same,TGI,RPMI-8226 leukemia,> 100 µM
same,TGI,SK-MEL-5 melanoma,51.6 µM
same,TGI,MDA-N,> 100 µM
same,TGI,CAKI-1 renal,72 µM
same,TGI,A549 NSCLC,> 100 µM
same,TGI,SN12C renal,85.7 µM
same,TGI,EKVX NSCLC,62.6 µM
same,TGI,IGROV1 ovarian,46.1 µM
same,TGI,NCI-H460 lung,> 100 µM
same,TGI,UACC-62 melanoma,72.7 µM
same,TGI,HL-60(TB) leukemia,62.6 µM
same,TGI,SW-620 colon,> 100 µM
same,TGI,ACHN renal,54.1 µM
same,TGI,NCI-H23 lung,54.5 µM
same,TGI,OVCAR-8 ovarian,> 100 µM
same,TGI,K-562 leukemia,> 100 µM
same,TGI,MCF7 breast,37.2 µM
same,TGI,SK-MEL-2 melanoma,33.2 µM
same,TGI,786-0 renal,> 100 µM
same,TGI,SK-MEL-28 melanoma,59 µM
same,TGI,SK-OV-3 ovarian,> 100 µM
same,TGI,MDA-MB-435,58.7 µM
same,TGI,MDA-MB-231 breast,> 100 µM
same,TGI,HCT-15 colon,> 100 µM
same,TGI,OVCAR-4 ovarian,> 100 µM
same,TGI,HCT-116 colon,> 100 µM
same,TGI,PC-3 prostate,68.1 µM
same,TGI,NCI-H522 lung,45.4 µM
same,TGI,NCI-H226 lung,30.7 µM
same,TGI,DU-145 prostate,61.1 µM
same,TGI,SNB-75 CNS,> 100 µM
same,TGI,HOP-92 NSCLC,88.1 µM
same,TGI,NCI/ADR-RES ovarian,> 100 µM
same,TGI,COLO 205 colon,69.7 µM
same,TGI,HT29 colon,43.4 µM
same,TGI,SNB-19 CNS,> 100 µM
same,TGI,OVCAR-5 ovarian,77.5 µM
same,TGI,TK-10 renal,83.9 µM
same,TGI,LOX IMVI melanoma,42.5 µM
same,TGI,M14 melanoma,30.7 µM
CCc1cc(-c2nsc(=O)o2)c(S(=O)(=O)CC)s1,TGI,U251 CNS,> 100 µM
same,TGI,HCC-2998 colon,> 100 µM
same,TGI,SF-268 CNS,> 100 µM
same,TGI,HOP-62 NSCLC,> 100 µM
same,TGI,SF-295 CNS,> 100 µM
same,TGI,SF-539 CNS,> 100 µM
same,TGI,OVCAR-3 ovarian,> 100 µM
same,TGI,T-47D breast,> 100 µM
same,TGI,KM12 colon,> 100 µM
same,TGI,UO-31 renal,> 100 µM
same,TGI,CCRF-CEM leukemia,> 100 µM
same,TGI,RPMI-8226 leukemia,> 100 µM
same,TGI,SK-MEL-5 melanoma,> 100 µM
same,TGI,MDA-N,> 100 µM
same,TGI,CAKI-1 renal,> 100 µM
same,TGI,A549 NSCLC,> 100 µM
same,TGI,SN12C renal,> 100 µM
same,TGI,EKVX NSCLC,> 100 µM
same,TGI,IGROV1 ovarian,> 100 µM
same,TGI,NCI-H460 lung,> 100 µM
same,TGI,HL-60(TB) leukemia,12 µM
same,TGI,SW-620 colon,> 100 µM
same,TGI,ACHN renal,> 100 µM
same,TGI,NCI-H23 lung,> 100 µM
same,TGI,OVCAR-8 ovarian,> 100 µM
same,TGI,K-562 leukemia,> 100 µM
same,TGI,MCF7 breast,> 100 µM
same,TGI,SK-MEL-2 melanoma,> 100 µM
same,TGI,786-0 renal,> 100 µM
same,TGI,SK-MEL-28 melanoma,> 100 µM
same,TGI,SK-OV-3 ovarian,> 100 µM
same,TGI,MDA-MB-435,> 100 µM
same,TGI,SR leukemia,> 100 µM
same,TGI,HCT-15 colon,> 100 µM
same,TGI,OVCAR-4 ovarian,> 100 µM
same,TGI,HCT-116 colon,> 100 µM
same,TGI,PC-3 prostate,85.1 µM
same,TGI,A498 renal,> 100 µM
same,TGI,NCI-H522 lung,57.2 µM
same,TGI,HS 578T breast,> 100 µM
same,TGI,NCI-H226 lung,> 100 µM
same,TGI,DU-145 prostate,> 100 µM
same,TGI,SNB-75 CNS,> 100 µM
same,TGI,HOP-92 NSCLC,> 100 µM
same,TGI,NCI/ADR-RES ovarian,> 100 µM
same,TGI,COLO 205 colon,> 100 µM
same,TGI,HT29 colon,> 100 µM
same,TGI,SNB-19 CNS,> 100 µM
same,TGI,OVCAR-5 ovarian,> 100 µM
same,TGI,TK-10 renal,> 100 µM
same,TGI,LOX IMVI melanoma,> 100 µM
same,TGI,M14 melanoma,> 100 µM

# From PubChem BioAssay (NCI)
